Consider two compounds from PubChem BioAssay (NCI).

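All cell lines were grown in 96-well plates and treated with compound for 48 hours. Abbreviation: GI50, concentration required for 50% inhibition of growth. Definition used: TGI = concentration required for complete inhibition of growth.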

Test systems include ACHN renal; UO-31 renal; NCI/ADR-RES ovarian; OVCAR-5 ovarian; IGROV1 ovarian; TK-10 renal; HL-60(TB) leukemia; OVCAR-8 ovarian; LOX IMVI melanoma; KM12 colon.
What all share (assay): growth of human tumour cells (NCI), 48 h

With `COc1cccc(C2CC(c3cc(OC)c(OC)c(OC)c3)=NN2)c1` (stereo not given), the GI50 with ACHN renal is 21.7 µM; in the assay with UO-31 renal, 14.4 µM; in the assay with NCI/ADR-RES ovarian it was 4.55 µM; in the assay on OVCAR-5 ovarian it was 18.4 µM; in the assay with IGROV1 ovarian, 2.02 µM; in the assay with TK-10 renal, 23.7 µM. In addition, the GI50 with HL-60(TB) leukemia was 4.08 µM; with OVCAR-8 ovarian it was 13.9 µM; in the assay with LOX IMVI melanoma, 9.49 µM; in the assay with KM12 colon, 5.02 µM. In addition, the TGI with ACHN renal came to 53 µM; with UO-31 renal, 38.8 µM; in the assay on NCI/ADR-RES ovarian, 27.4 µM; with OVCAR-5 ovarian it was 66.1 µM; with IGROV1 ovarian, 13.1 µM; with TK-10 renal it was 85.2 µM. The TGI in the assay on HL-60(TB) leukemia was 31.7 µM; in the assay with OVCAR-8 ovarian, 39 µM; with LOX IMVI melanoma, 21.8 µM; in the assay on KM12 colon it was 20.4 µM.

As for `C(=Nc1ccccc1)C1CCCC[N-]1.C(=Nc1ccccc1)C1CCCC[N-]1.[Cu+2].[O-][Cl+3]([O-])([O-])O` (stereo not given), the GI50 in the assay with ACHN renal was 1.45 µM; in the assay on UO-31 renal it was 12.6 µM; in the assay on NCI/ADR-RES ovarian, 8.33 µM; with OVCAR-5 ovarian, 14.8 µM; in the assay on IGROV1 ovarian, 14 µM; in the assay with TK-10 renal it was 9.8 µM. Moreover, the GI50 in the assay with HL-60(TB) leukemia is 6.26 µM; in the assay on OVCAR-8 ovarian, > 39.7 µM; with LOX IMVI melanoma, 0.0132 µM; in the assay with KM12 colon it was 1.07 µM. Moreover, the TGI in the assay on ACHN renal was 12.3 µM; in the assay on UO-31 renal, > 94.3 µM; with NCI/ADR-RES ovarian, 29.7 µM; with OVCAR-5 ovarian, 31.6 µM; with IGROV1 ovarian, 47.8 µM; with TK-10 renal, 32.7 µM. In addition, the TGI in the assay on HL-60(TB) leukemia was 31.5 µM; in the assay with OVCAR-8 ovarian it was > 95.2 µM; with LOX IMVI melanoma it was 11.8 µM; with KM12 colon, 22.4 µM.
